{
  "source": "patent EP0449955B1",
  "about": "“SYNTHETIC HIV-LIKE PEPTIDES, THEIR COMPOSITIONS AND USES” (CLARITY TECHNOLOGIES INCORPORATED, priority 1988, dated 1996)",
  "test_system": "SIV/HIV-2 antibodies",
  "assay": "EIA of HIV-2 gp32 peptide-protein conjugates against macaque serum pools",
  "assay_type": "binding",
  "settings": "peptide conjugated via C-terminus to BSA (SMCC), coated at 10 micrograms peptide/ml; 1:101 dilution of SIV+ macaque serum pool; Figure 5",
  "method": "The free peptides or peptide-protein conjugates of Figures 1-13 were initially screened for immunoreactivity by coating each well of polystyrene microtiter EIA plates (Costar, Cambridge, Massachusetts, U.S.A.) with 0.2 ml amounts of concentrations of 5-50 micrograms/ml peptide in Tris buffer, 10 mM, pH 8.0, at 4°C overnight. Peptides or peptide-protein conjugates showing immunoreactivity by EIA were then further diluted for coating to determine the minimal concentrations required that allowed maximal immunoreactivity with antibodies to HIV, and minimal nonspecific reactivity with normal sera. The EIA tests were performed as follows: The coating solution was removed from each well and the wells were blocked at 37°C for 30 minutes with a solution of 50 mM phosphate, 100 mM NaCl, pH 7.4, 1% BSA, 0.5% gelatin. The wells were then aspirated dry with a microtiter plate washer and washed 3 times with a solution of 50 mM phosphate, 100 mM NaCl, .05% Tween 20, (trademark) pH 7.4 (PBST). […] Reactions were stopped with 50 microliters of 4N H₂SO₄, and the color development was quantitated in a Multiscan plate reader at A₄₉₂. […] Most peptides and peptide conjugates were initially screened against a 1:101 dilution of pools of HIV positive or HIV negative sera, and the same serum pool was used to allow quantitative comparison of immunoreactivity of different free peptides or peptide-protein conjugates.\nThe peptides in Figures 1 and 5 were synthesized as described in Example 1 and conjugated to KLH or BSA as described in Example 2. These peptide-protein conjugates were coated to polystyrene microtiter plates all at a concentration 10 micrograms peptide/ml and evaluated for immunoreactivity as described in Example 3, using a 1:101 dilution of a pool of sera (HIV+/SIV+, respectively) containing antibodies to HIV-1 (Figure 1) or to HIV-2 (Figure 5), as well as pooled serum (HIV-/SIV-, respectively) containing no antibodies to HIV-1 or HIV-2. […]",
  "note": "“Also recorded” adds a separate entry of the source.",
  "data": [
    {"sequence": "ARLNSWGCAFRQVCHGC [2S25]", "values": [
      {"measurement": "immunoreactivity with SIV/HIV-2 antibodies", "result": "maximally immunoreactive; also recorded: Significant immunoreactivity; also recorded: best immunoreactivity"}
    ]}
  ]
}
